As a reminder, the melting point is the temperature of the solid-liquid transition. Take `Cc1c(C(=O)NCc2ccc(OC(F)(F)F)cc2)sc2ccc(Cl)cc12` [Compound 117]: the melting point is 159.2 to 162.4 °C.

Compound `CC[C@H](NC(=O)c1cc2cc(Cl)ccc2o1)c1ccccc1` [Compound 59, 5-chloro-benzofuran-2-carboxylic acid ((S)-1-phenyl-propyl)-amide] gave a melting point of 110.1 to 111.3 °C.

For `O=C(N[C@H](C(=O)O)c1ccccc1)c1cc2cc(Cl)ccc2o1` [Compound 41, (S)-[(5-chloro-benzofuran-2-carbonyl)-amino]-phenyl-acetic acid], the melting point lay within 211.2 to 215.6 °C.

For the compound `O=C(NCc1ccc(Oc2ccccc2)cc1)c1cc2cc(Cl)ccc2o1` [Compound 68, 5-chloro-benzofuran-2-carboxylic acid 4-phenoxy-benzylamide], the melting point fell in the range of 93.6 to 95.5 °C.

For `COc1ccc(CNC(=O)c2ccc3ccccc3n2)c(OC)c1` [Compound 112, quinolin-2-carboxylic acid 2,4-dimethoxy-benzylamide], the melting point lay in the range of 93.9 to 95.4 °C.

The compound `O=C(c1ccc(F)cc1)C1CCN(C(=O)c2cc3cc(Cl)ccc3o2)CC1` [Compound 102] displayed a melting point of 135 to 137.1 °C.

`O=C(Nc1ccc(N2CCOCC2)cc1)c1cc2cc(Cl)ccc2o1` [Compound 99] gave a melting point of 223.8 to 225.6 °C.

For the compound `O=C(NCc1ccccc1OC(F)(F)F)c1cc2cc(Cl)ccc2o1` [Compound 87, 5-chloro-benzofuran-2-carboxylic acid 2-trifluoromethoxy-benzylamide], the melting point fell in the range of 125.8 to 127.9 °C.

Consider `O=C(c1cc2cc(Cl)ccc2o1)N1CCCC1c1ccc(F)cc1` (stereo not shown) [Compound 104, (5-chloro-benzofuran-2-yl)-[2-(4-fluoro-phenyl)-pyrrolidin-1-yl]-methanone], for which the melting point was in the range of 104.4 to 106.1 °C.

`CS(=O)(=O)c1ccc(CNC(=O)c2cc3cc(Cl)ccc3o2)cc1` [Compound 79, 5-chloro-benzofuran-2-carboxylic acid 4-methanesulfonyl-benzylamide] gave a melting point of 187.6 to 189.1 °C.

`Cc1ccccc1CNC(=O)c1cc2cc(Cl)ccc2o1` [Compound 69, 5-chloro-benzofuran-2-carboxylic acid 2-methyl-benzylamide] displayed a melting point of 141.8 to 143 °C.

`COc1ccc(CNC(=O)c2cn(Cc3ccccc3)c3ccccc23)c(OC)c1` showed a melting point of 118.8 to 120.4 °C.

For `O=C(c1cc2cc(Cl)ccc2o1)N1CCCC1c1ccccc1` (stereo not shown) [Compound 103, (5-chloro-benzofuran-2-yl)-(2-phenyl-pyrrolidin-1-yl)-methanone], the melting point lay in the range of 123.3 to 125.4 °C.

For the compound `CC(NC(=O)c1cc2cc(Cl)ccc2o1)c1ccccc1` (stereo not shown) [Compound 57, 5-chloro-benzofuran-2-carboxylic acid (1-phenyl-ethyl)-amide], the melting point lay in the range of 136.3 to 138.2 °C.

With `CSc1ccc(CNC(=O)c2cc3cc(Cl)ccc3o2)cc1` [Compound 61, 5-chloro-benzofuran-2-carboxylic acid 4-methylsulfanyl-benzylamide], the melting point was 159 to 161 °C.

In the case of `Cc1ccc(C)c(CNC(=O)c2cc3cc(Cl)ccc3o2)c1` [Compound 90, 5-chloro-benzofuran-2-carboxylic acid 2,5-dimethyl-benzylamide], the melting point is 123.1 to 124 °C.

For the compound `O=C(NCc1ccc(Br)cc1)c1cc2cc(Cl)ccc2o1` [Compound 77, 5-chloro-benzofuran-2-carboxylic acid 4-bromo-benzylamide], the melting point lay in the range of 192.3 to 193.8 °C.

`COC(=O)[C@H](NC(=O)c1cc2cc(Cl)ccc2o1)c1ccccc1` [Compound 84, (R)-[(5-chloro-benzofuran-2-carbonyl)-amino]-phenyl-acetic acid methyl ester] yielded a melting point of 147.9 °C.

Regarding `Cc1cccc(Cl)c1CNC(=O)c1sc2ccc(Cl)cc2c1C` [Compound 110, 5-chloro-3-methyl-benzo[b]thiophene-2-carboxylic acid 2-chloro-6-methyl-benzylamide], the melting point was 180.5 to 182 °C.

Source of the values: patent US20080039442A1, “Compounds With Kv4 Ion Channel Activity” (Devgen NV, priority 2004, published 2008).
